≈ marks a conversion by molar mass, not a printed value. Counter-ions that a name gives are not always drawn.
How the values were obtained:
[1] = Solubility in the incubation medium; conditions: for solubility: aqueous buffer, kinetic from dmso stock; for Solubility (in words): incubation medium
E. coli TP = target: T1, E. coli TP (Escherichia coli, UniProt P07650); assay: In vitro E. coli thymidine phosphorylase inhibition, spectrophotometric assay at 290 nm; format: biochemical; conditions: for inhibition at 15 µM: compound at 15 µM (maximum solubility); for inhibition at 25 µM: compound at 25 µM (maximum solubility); for inhibition at 30 µM: read-out: TP inhibition (%) at maximum solubility (30 µM)
T1 construct: purchased Sigma Aldrich T2807-1KU
Experimental: The adopted protocol is a modification of the original method developed by Khan[51]. TP activity and inhibition assays were based on the phosphorolysis of thymidine to thymine, this conversion results in a significant spectrophotometric decrease. At 290 nm and pH 7.4, thymidine has a higher extinction coefficient than thymine (Δε = −480 M^−1 cm^−1). The absorbance at 290 nm was measured every 2 min for 30 min in 96-well plates at 25 °C.
Thymidine was dissolved in buffer (3 mM). […] All experiments were conducted in triplicate.
The method reported by Khan et al.[51] has been adapted to a screening in 96-well plates (200 µL well, UV-Star® 96-well microplate, Greiner). Each well contained 160 µL of 50 mM KH2PO4 buffer (pH 7.4), 0.006 U of E. coli TP (T2807-1KU, Sigma Aldrich), and 20 µL of the tested compound solution. […] The decrease in absorbance due to conversion of thymidine to thymine was followed during 30 min (PowerWave HT Microplate Reader, Biotek) at 25 °C, with one measure every 2 min and a 30 s shaking before each measure.

[2] = compound at 50 µM, 2.5% DMSO, average of three measurements

T1 sequence (P07650 whole entry): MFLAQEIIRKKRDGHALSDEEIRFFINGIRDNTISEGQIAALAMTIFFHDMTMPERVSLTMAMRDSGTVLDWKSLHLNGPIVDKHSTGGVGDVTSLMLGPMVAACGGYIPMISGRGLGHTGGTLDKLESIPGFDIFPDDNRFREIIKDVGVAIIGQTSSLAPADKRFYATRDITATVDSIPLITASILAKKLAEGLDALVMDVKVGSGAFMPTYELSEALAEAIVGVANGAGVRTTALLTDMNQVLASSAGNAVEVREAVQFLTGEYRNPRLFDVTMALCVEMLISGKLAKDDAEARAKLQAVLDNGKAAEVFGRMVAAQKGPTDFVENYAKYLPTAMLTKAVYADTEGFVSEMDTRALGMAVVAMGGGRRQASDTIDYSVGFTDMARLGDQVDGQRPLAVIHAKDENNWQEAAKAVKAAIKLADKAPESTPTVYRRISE

Compound | solubility [1] | inhibition at 50 µM (E. coli TP; [2]) | melting point | other results
O=c1[nH]c(=O)c2cc3ccc(OCc4ccccc4)cc3nc2[nH]1 [Compound 2f] | 50 µM (≈ 16 µg/mL) | 0% | – | –
CCC(CCCn1c(=O)c(Br)cn(C(CC)CCCN2C(=O)c3cc4cc5c(cc4nc3C2=O)OCO5)c1=O)n1cc(Br)c(=O)[nH]c1=O (centres unmarked) [Compound 17, 2-[4-[5-Bromo-3-[4-(5-bromo-2,4-dioxo-3,4-dihydropyrimidine-1(2H)-yl)hexyl]-2,4-dioxo-3,4-dihydropyrimidine-1(2H)-yl]hexyl]-6,7-méthylènedioxy-2H-pyrrolo[3,4-b]quinoline-1,3-dione] | – | – | 144 to 148 °C | –
O=c1[nH]c(=O)c2cc3ccc(Cl)cc3nc2[nH]1 [Compound 2j] | 50 µM (≈ 12.4 µg/mL) | 0% | – | –
O=c1[nH]c(=O)c2cc[nH]c2[nH]1 [Compound 7-DX, 7-Deazaxanthine, reference compound] | – | 60% | – | –
O=c1[nH]c(=O)c2cc3ccc(Cc4ccccc4)cc3nc2[nH]1 [Compound 2i, 8-Benzylpyrimido[4,5-b]quinoline-2,4(1H,3H)-dione] | 50 µM (≈ 15.2 µg/mL) | 30% | 297 to 299 °C (dec.) | –
O=c1[nH]c(=O)c2cc3ccc(Oc4ccccc4)cc3nc2[nH]1 [Compound 2e, 8-Phenoxypyrimido[4,5-b]quinoline-2,4(1H,3H)-dione] | 50 µM (≈ 15.3 µg/mL) | 30% | 334 to 336 °C (dec.) | –
O=c1[nH]c(=O)c2cc3c(ccc4ccccc43)nc2[nH]1 [Compound 2m] | – | 29% | – | –
O=C1c2cc3cc4c(cc3nc2C(=O)N1Cc1cc(=O)[nH]c(=O)[nH]1)OCO4 [Compound 22, 2-[(2,6-Dioxo-1,2,3,6-tetrahydropyrimidin-4-yl)methyl]-6,7-methylenedioxy-1H-pyrrolo[3,4-b]quinoline-1,3(2H)-dione] | 15 µM (≈ 5.49 µg/mL) | – | 407 to 409 °C (dec.) | Solubility (in words) [1]: less soluble; inhibition at 15 µM (E. coli TP; 2.5% DMSO): 25%
COc1cc2nc3[nH]c(=O)[nH]c(=O)c3cc2c(OC)c1OC [Compound 2h] | 15 µM (≈ 4.55 µg/mL) | – | – | Solubility (in words) [1]: sparingly soluble; inhibition at 15 µM (E. coli TP; 2.5% DMSO): 0%
Cc1cn(CCCCN2C(=O)c3cc4cc5c(cc4nc3C2=O)OCO5)c(=O)[nH]c1=O [Compound 13a, 2-[4-(2,4-Dioxo-5-methyl-3,4-dihydropyrimidine-1(2H)-yl)butyl]-6,7-methylenedioxy-2H-pyrrolo[3,4-b]quinoline-1,3-dione] | – | 25% | 302 °C | –
COc1cc(-c2c3cc4c(cc3nc3[nH]c(=O)[nH]c(=O)c23)OCO4)cc(OC)c1OC [Compound 2r] | 25 µM (≈ 10.6 µg/mL) | – | – | inhibition at 25 µM (E. coli TP; 2.5% DMSO): 0%
CN(C)CCCN1C(=O)c2cc3c(=O)[nH]c(=O)[nH]c3nc2C1=O [Compound 28h, 7-(3-(Dimethylamino)propyl)-1H-pyrrolo[3′,4′:5,6]pyrido [2,3-d]pyrimidine-2,4,6,8 (3H,7H)-tetraone, hydrochloride] | – | 0% | – | –
O=c1[nH]c(=O)c2cc3ccc(C(F)(F)F)cc3nc2[nH]1 [Compound 2k] | – | 0% | – | –
O=C1c2cc3c(=O)[nH]c(=O)[nH]c3nc2C(=O)N1CC1CCCCC1 [Compound 28g] | 30 µM (≈ 9.85 µg/mL) | – | – | inhibition at 30 µM (E. coli TP): 0%
O=C1c2cc3cc4c(cc3nc2C(=O)N1Cc1[nH]c(=O)[nH]c(=O)c1Cl)OCO4 [Compound 23a, 2-[(5-Chloro-2,6-dioxo-1,2,3,6-tetrahydropyrimidin-4-yl)methyl]-6,7-methylenedioxy-1H-pyrrolo[3,4-b]quinoline-1,3(2H)-dione] | – | 0% | 352 to 354 °C (dec.) | –
O=C1c2cc3c(=O)[nH]c(=O)[nH]c3nc2C(=O)N1CCc1ccccc1 [Compound 28e, 7-Phenylethyl-1H-pyrrolo[3′,4′:5,6]pyrido[2,3-d]pyrimidine-2,4,6,8(3H,7H)-tetraone] | – | 0% | 359 to 361 °C | –
CN(C)CCCN1C(=O)c2cc3c(=O)[nH]c(=O)[nH]c3nc2C1=O (as salt: hydrochloride) [Compound 28h, 7-(3-(Dimethylamino)propyl)-1H-pyrrolo[3′,4′:5,6]pyrido [2,3-d]pyrimidine-2,4,6,8 (3H,7H)-tetraone, hydrochloride] | – | – | 309 to 311 °C | –

Compound | solubility [1] | inhibition at 50 µM (E. coli TP; [2]) | melting point | other results
O=C1NC(=O)c2nc3[nH]c(=O)[nH]c(=O)c3cc21 [Compound 27] | – | 0% | – | –
CN(C)c1c2cc3c(cc2nc2[nH]c(=O)[nH]c(=O)c12)OCO3 [Compound 2s, 5-Dimethylamino-7,8-methylenedioxypyrimido[4,5-b]quinoline-2,4(1H,3H)-dione] | 15 µM (≈ 4.5 µg/mL) | – | 348 °C | inhibition at 15 µM (E. coli TP; 2.5% DMSO): 0%
Cc1ccc2cc3c(=O)[nH]c(=O)[nH]c3nc2c1 [Compound 2b] | – | 0% | – | –
Cc1cccc2cc3c(=O)[nH]c(=O)[nH]c3nc12 [Compound 2c] | – | 14% | – | –
O=C1c2cc3c(=O)[nH]c(=O)[nH]c3nc2C(=O)N1Cc1cccnc1 [Compound 28f, 7-(Pyridin-3-ylmethyl)-1H-pyrrolo[3′,4′:5,6]pyrido[2,3-d]pyrimidine-2,4,6,8(3H,7H)-tetraone] | – | 0% | > 360 °C | –
Cc1ccc2nc3[nH]c(=O)[nH]c(=O)c3cc2c1 [Compound 2a] | – | 0% | – | –
2-[4-(2,4-Dioxo-5-methyl-3,4-dihydropyrimidine-1(2H)-yl)hexyl]-6,7-methylenedioxy-2H-pyrrolo[3,4-b]quinoline-1,3-dione [Compound 13b] | – | – | – | TP inhibition (%) at 50 µM (E. coli TP; [2]): 0% at 50 µM
O=c1[nH]c(=O)c2cc3ccc4cc5ccccc5cc4c3nc2[nH]1 [Compound 2o, Naphto[2,3-h]pyrimido[4,5-b]quinoline-2,4(1H,3H)-dione] | 25 µM (≈ 7.83 µg/mL) | – | > 360 °C | Solubility (in words) [1]: less soluble; inhibition at 25 µM (E. coli TP; 2.5% DMSO): 0%
O=c1[nH]c(=O)c2cc3cc(Cl)c(Cl)cc3nc2[nH]1 [Compound 2l, 7,8-Dichloropyrimido[4,5-b]quinoline-2,4(1H,3H)-dione] | > 50 µM | 71% | > 360 °C | IC50 (E. coli TP; 300 µM thymidine, pH 7.4, 25 °C): 42 µM
O=C1c2cc3cc4c(cc3nc2C(=O)N1CCCCn1cc(Br)c(=O)[nH]c1=O)OCO4 [Compound 16a, 2-[4-(5-Bromo-2,4-dioxo-3,4-dihydropyrimidine-1(2H)-yl)butyl]-6,7-methylenedioxy-2H-pyrrolo[3,4-b]quinoline-1,3-dione] | 25 µM (≈ 12.2 µg/mL) | – | 276 °C | Solubility (in words) [1]: less soluble; inhibition at 25 µM (E. coli TP; 2.5% DMSO): 30%
Cc1c2cc3c(cc2nc2[nH]c(=O)[nH]c(=O)c12)OCO3 [Compound 2q] | – | 0% | – | –
O=C1c2cc3c(=O)[nH]c(=O)[nH]c3nc2C(=O)N1Cc1ccc(Cl)cc1Cl [Compound 28d] | 30 µM (≈ 11.7 µg/mL) | – | – | inhibition at 30 µM (E. coli TP): 0%
O=C1c2cc3cc4c(cc3nc2C(=O)N1Cc1[nH]c(=O)[nH]c(=O)c1I)OCO4 [Compound 23c, 2-[(5-Iodo-2,6-dioxo-1,2,3,6-tetrahydropyrimidin-4-yl)methyl]-6,7-methylenedioxy-1H-pyrrolo[3,4-b]quinoline-1,3(2H)-dione] | – | 0% | 365 to 367 °C (dec.) | –
O=C1c2cc3cc4c(cc3nc2C(=O)N1CCCCCCn1cc(Br)c(=O)[nH]c1=O)OCO4 [Compound 16b, 2-[6-(5-Bromo-2,4-dioxo-3,4-dihydropyrimidine-1(2H)-yl)hexyl]-6,7-methylenedioxy-2H-pyrrolo[3,4-b]quinoline-1,3-dione] | 12.5 µM (≈ 6.44 µg/mL) | – | 282 to 283 °C | Solubility (in words) [1]: less soluble; inhibition at 12.5 µM (E. coli TP; compound at 12.5 µM (maximum solubility), 2.5% DMSO): 30%
O=C1c2cc3cc4c(cc3nc2C(=O)N1Cc1ccccc1)OCO4 [Compound 24, 6,7-Methylenedioxy-2-benzylpyrrolo[3,4-b]quinoline-1,3-dione] | – | 20% | 191 to 193 °C | –
COc1ccc(CN2C(=O)c3cc4c(=O)[nH]c(=O)[nH]c4nc3C2=O)c(OC)c1 [Compound 28b] | – | 0% | – | –
O=c1[nH]c(=O)c2cc3ccc4ccccc4c3nc2[nH]1 [Compound 2n, Benzo[h]pyrimido[4,5-b]quinoline-8,10(9H,11H)-dione)] | 15 µM (≈ 3.95 µg/mL) | – | 326 to 328 °C | Solubility (in words) [1]: less soluble; inhibition at 15 µM (E. coli TP; 2.5% DMSO): 0%

Source: paper PMC8725971, “Polycyclic nitrogen heterocycles as potential thymidine phosphorylase inhibitors: synthesis, biological evaluation, and molecular docking study” (Journal of Enzyme Inhibition and Medicinal Chemistry, 2021)
